Test results as given in patent US5380921A, “Aminophosponic acid derivative” (Banyu Pharmaceutical Co., Ltd., priority 1993, dated 1995).
“Also recorded” adds a separate entry of the source.

Assays:
Guinea Pigs = test: Effect on Big Endothelin-1-induced Increase in Airway Resistance in Guinea Pigs; format: in vivo, guinea pig
Method: Guinea pigs were first anesthetized with urethane, and then the necks were subjected to median incision, a tracheal cannula was inserted in the trachea. Spontaneous respiration was interrupted with succinylcholine (5 mg/kg, hypodermic injection), and then an artificial respirator was used to effect artificial ventilation (10 ml/air/kg, […]). The airway pressure was then measured and recorded using the Konzett and Rossler method (Arch. Exp. Path. Pharmacol., Vol. 135, p.71-74, 1940), via an airway contraction transducer from the tracheal cannula.
Examined was the influence of a representative compound of the present invention (Compound of Example 1, Isomer B) to the increase in airway pressure produced by the administration of 5 nmol/kg of big endothelin-1 through a polyethylene tube inserted into the common carotid vein. The test compound was injected into the common carotid vein 5 minutes before the administration of big endothelin-1. Also, upon completion of the experiment, the change in airway pressure obtained by blockage of the trachea was defined as a 100% increase in airway pressure, and the measured increases in airway pressure were expressed as percentages of this value. […]

[1] = tested on: Isolated Guinea Pig Bronchial Smooth Muscles; test: Effect on Big Endothelin-1-induced Contraction in Isolated Guinea Pig Bronchial Smooth Muscles
Method: Bronchia (outer diameter approximately 2 mm) were isolated from the lung of a guinea pig, and the connective tissue, lung parenchymal tissue, etc. were peeled off, and then a ring preparation (4 mm in length) was prepared. These samples were placed in a 5 ml Magnus' tube filled with Krebs-Henseleit solution saturated with a gas mixture of 95% O2 and 5% CO2, and a change in tension was isometrically measured and recorded.
The influence of a representative compound of the present invention (Compound of Example 2, Isomer B) to the increase in the tension produced by 100 nM of big endothelin-1 was examined. The test compound was added into the Magnus' tube 40 minutes prior to the addition of big endothelin-1.
A 100% increase in the tension was defined as that in the case of no addition of the test compound (control) at 2 hours after addition of big endothelin-1, and the comparison with the increase in the tension in the cases where the test compound was added is shown in Table 3.

[2] = target: T1, endothelin-converting enzyme (ECE) (Bos taurus, UniProt P42891); test: ECE Activity Inhibition Test (endothelin-1 produced from big endothelin-1, RIA); format: biochemical; conditions: 10 μM test compound; 1 μM big endothelin-1; pH 7.2, 37° C., 90 minutes
T1 construct: ECE was prepared according to the method already published by Yano, et.al; endogenous in cells
T1 sequence (P42891 1-754): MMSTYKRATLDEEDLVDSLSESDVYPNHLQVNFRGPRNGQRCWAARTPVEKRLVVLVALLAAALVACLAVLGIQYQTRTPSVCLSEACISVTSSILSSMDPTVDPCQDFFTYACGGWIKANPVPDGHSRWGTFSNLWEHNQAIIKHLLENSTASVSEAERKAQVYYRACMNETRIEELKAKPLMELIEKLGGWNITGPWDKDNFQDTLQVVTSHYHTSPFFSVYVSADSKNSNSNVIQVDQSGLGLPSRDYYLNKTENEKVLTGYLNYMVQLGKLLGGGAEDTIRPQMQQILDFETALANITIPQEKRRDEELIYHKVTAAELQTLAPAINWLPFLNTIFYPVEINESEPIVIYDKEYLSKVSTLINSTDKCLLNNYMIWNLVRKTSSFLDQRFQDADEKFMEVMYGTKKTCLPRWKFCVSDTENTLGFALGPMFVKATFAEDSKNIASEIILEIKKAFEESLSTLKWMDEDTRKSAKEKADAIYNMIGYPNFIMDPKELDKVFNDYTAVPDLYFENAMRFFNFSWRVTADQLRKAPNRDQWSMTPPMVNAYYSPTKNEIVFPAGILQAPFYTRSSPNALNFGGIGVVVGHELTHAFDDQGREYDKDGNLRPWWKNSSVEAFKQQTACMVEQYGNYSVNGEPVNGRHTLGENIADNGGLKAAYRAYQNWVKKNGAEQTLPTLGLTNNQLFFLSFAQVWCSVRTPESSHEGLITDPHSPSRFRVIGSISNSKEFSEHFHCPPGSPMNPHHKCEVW
Method: ECE was prepared according to the method already published by Yano, et.al. (Biochem. Biophys. Res. Commun., Vol. 171, p.1192-1198, 1990), and 11 μg of ECE and 1 μM of big endothelin-1 were reacted with a 0.5M Tris-HCl buffer solution (pH 7.2) at 37° C. for 90 minutes in the presence or absence of a test compound, after which the amount of endothelin-1 produced thereby was determined by the RIA method, and the ECE inhibition activity of the test compound was evaluated.

[3] = tested on: Isolated Pig Coronary Arteries; test: Effect on endothelin-1-induced increase in tension in isolated pig coronary arteries; conditions: 0.3 nM endothelin-1
Method: Pig coronary arteries were isolated, and a spiral preparation having a width of 1 mm and a length of 10 mm was prepared therefrom. These samples were then placed in a 5 ml Magnus' tube filled with Krebs-Henseleit solution saturated with a gas mixture of 95% O2 and 5% CO2, and a change in the tension was isometrically measured and recorded. […]

[4] = tested on: Isolated Pig Coronary Arteries; test: Effect on Big Endothelin-1-induced Contraction in Isolated Pig Coronary Arteries
Method: Pig coronary arteries were isolated, and a spiral preparation having a width of 1 mm and a length of 10 mm was prepared therefrom. These samples were then placed in a 5 ml Magnus' tube filled with Krebs-Henseleit solution saturated with a gas mixture of 95% O2 and 5% CO2, and a change in the tension was isometrically measured and recorded.
The influence of a representative compound of the present invention (Compound of Example 11) to the increase in the tension produced by 30 nM of big endothelin-1 was examined. The test compound was added to the Magnus' tube 40 minutes prior to the addition of big endothelin-1.
A 100% increase in the tension was defined as that in the case of no addition of the test compound (control) at 2 hours after addition of big endothelin-1, and the comparison with the increase in the tension in the cases where the test compound was added is shown in Table 2.

Q: With `CC(C)C[C@H](NC(CCc1ccccc1)P(=O)(O)O)C(=O)N[C@@H](Cc1c[nH]c2ccccc12)C(=O)O` (single isomer, unassigned) [Example 1 (Isomer B), N-[N-(3-phenyl-1-phosphonopropyl)-L-leucyl]-L-tryptophan] as the compound, how does the “increase in airway pressure induced by big endothelin-1” value (Guinea Pigs; 0.3, 1.0 and 3.0 mg/kg into common carotid vein, 5 minutes before 5 nmol/kg big endothelin-1, FIG. 1) read?
A: Its value is “remarkably inhibits the increase in the airway pressure; also recorded: suppressed the increase in airway pressure induced by big endothelin-1, in a dose-dependent manner”.

Q: And the “change in airway pressure on administration of the test compound alone” value (Guinea Pigs; test compound alone)?
A: The value was “no change in the airway pressure”.

Q: For `CC(C)C[C@H](NC(CCc1cccc2ccccc12)P(=O)(O)O)C(=O)N[C@@H](Cc1c[nH]c2ccccc12)C(=O)O` (single isomer, unassigned) [Example 2 (Isomer B), N-{N-[3-(1-naphthyl)-1-phosphonopropyl]-L-leucyl}-L-tryptophan], which “inhibition of big endothelin-1-induced contraction (in words)” value ([1]; 100 nM big endothelin-1, 1-100 μm (so in the source)) is on record?
A: The value was “dose-dependent inhibition”.

Q: What about the IC50 ([1]; Cavia porcellus, 100 nM big endothelin-1, guinea pig bronchia, calculated, read-out: IC50 value, inhibition of big endothelin-1-induced contraction) of the same compound?
A: The IC50 was 16 µM.

Q: And the activity at 1 µM ([1]; Cavia porcellus, 1 μm (so in the source), 100 nM big endothelin-1, at 2 hours, read-out: Contraction (% of control))?
A: Its activity at 1 µM is 105%.

Q: What about the activity at 10 µM ([1]; Cavia porcellus, 10 μm (so in the source), 100 nM big endothelin-1, at 2 hours, read-out: Contraction (% of control)) of the same compound?
A: The activity at 10 µM was 54.9%.

Q: What about the activity at 100 µM ([1]; Cavia porcellus, 100 μm (so in the source), 100 nM big endothelin-1, at 2 hours, read-out: Contraction (% of control)) of the same compound?
A: The activity at 100 µM was 32.9%.

Q: What about the “effect of the test compound itself on the tension of bronchial samples” value ([1]; compound alone) of the same compound?
A: The value was “no effect”.

Q: For `O=C(O)[C@H](Cc1c[nH]c2ccccc12)NC(=O)[C@H](Cc1ccccc1)NC(CCc1ccccc1)P(=O)(O)O` (single isomer, unassigned) [Example 10 (Isomer B), N-[N-(3-phenyl-1-phosphonopropyl)-L-phenylalanil]-L-tryptophan], which inhibition at 10 µM [2] is on record?
A: The inhibition at 10 µM was 76%.

Q: `CC(C)C[C@H](NC(CCc1c[nH]c2ccccc12)P(=O)(O)O)C(=O)N[C@@H](Cc1c[nH]c2ccccc12)C(=O)O` (stereo partly drawn) [Example 6, N-[N-[3-(3-indolyl)-1-phosphonopropyl]-L-leucyl]-L-tryptophan] was tested. Which inhibition at 10 µM [2] did it give?
A: Its inhibition at 10 µM is 80%.

Q: For `CC(C)C[C@H](NC(CCc1ccccc1)P(=O)(O)O)C(=O)N[C@@H](Cc1c[nH]c2ccccc12)C(=O)O` (stereo partly drawn) [Example 11, N-[N-(3-phenyl-1-phosphonopropyl)-L-leucyl]-L-tryptophan], which inhibition at 10 µM [2] is on record?
A: Its inhibition at 10 µM is 84%.

Q: And the “effect on the increase in the tension caused by endothelin-1” value [3]?
A: Its value is “no effect”.

Q: And the “inhibition of big endothelin-1-induced contraction (in words)” value ([4]; 30 nM big endothelin-1, 10-100 μM)?
A: Its value is “dose-dependent inhibition”.

Q: What about the IC50 ([4]; Sus scrofa, 30 nM big endothelin-1, pig coronary arteries, calculated, read-out: IC50 value, inhibition of big endothelin-1-induced contraction) of the same compound?
A: Its IC50 is 16 µM.

Q: And the activity at 10 µM ([4]; Sus scrofa, 10 μM, 30 nM big endothelin-1, at 2 hours, read-out: Contraction (% of control))?
A: The activity at 10 µM was 59.9%.

Q: And the activity at 30 µM ([4]; Sus scrofa, 30 μM, 30 nM big endothelin-1, at 2 hours, read-out: Contraction (% of control))?
A: Its activity at 30 µM is 35.3%.

Q: And the activity at 100 µM ([4]; Sus scrofa, 100 μM, 30 nM big endothelin-1, at 2 hours, read-out: Contraction (% of control))?
A: The activity at 100 µM was 2.7%.

Q: What about the “effect of the compound itself on the tension of blood vessel samples” value ([4]; compound alone) of the same compound?
A: The value was “no effect”.

Q: How did the inhibition at 10 µM [2] turn out when `CC(C)C[C@H](NP(=O)(O)O[C@@H]1O[C@@H](C)[C@H](O)[C@@H](O)[C@H]1O)C(=O)N[C@@H](Cc1c[nH]c2ccccc12)C(=O)O` [Phosphoramidon, reference compound] was run?
A: Its inhibition at 10 µM is 64%.
